Data on 3 compounds can be found in publication PMC12858405, “Ideal efficacy photoswitching for chromocontrol of TRPC4/5 channel functions in live tissues” (Nature Chemical Biology, 2026).

One assay concerns the target T1, heteromeric TRPC5:TRPC1 (Homo sapiens, UniProt Q9UL62).
T1 construct: expressed in transfected cells; host or cells: HEK293, transiently transfected
The arrangement: method as in earlier work. The following applies: supplement cites it as ref 8; cited from earlier work.

For another assay, the system named is TRPC5. The following applies: ag. = agonistic effect; read-out: EC50 [nM] simple agonism, TRPC5; cited from earlier work.
Assay [1] concerns Th+ neurons of Th-GCaMP6f-ΔTrpc5 mice. The experiment in a line: GCaMP6f Ca2+ imaging of Th+ neurons in arcuate nucleus brain slices with 355 nm photoswitching, Th-GCaMP6f-ΔTrpc5 (5ko) mice.
From the text: slices through the ARC of mice expressing the Ca2+ indicator GCaMP6f in Th+ neurons (Fig. 4),
we investigated (1) whether Ca2+ responses at endogenous TRPC5 expression levels can be
TRPC5 expression using TRPC5-deficient brain slices, (3) whether a dose dependence could be
detected, and (4) whether there are properties in channel activity that can be distinguished between
concentration-response measurements (Fig. 5d).
A further assay has as its target T2, EA-activated TRPC4 (Mus musculus, UniProt Q9QUQ5).
T2 construct: expressed in transfected cells; host or cells: HEK293-mTRPC4β-YFP
T2 sequence (Q9QUQ5 1-890 isoform Q9QUQ5-2): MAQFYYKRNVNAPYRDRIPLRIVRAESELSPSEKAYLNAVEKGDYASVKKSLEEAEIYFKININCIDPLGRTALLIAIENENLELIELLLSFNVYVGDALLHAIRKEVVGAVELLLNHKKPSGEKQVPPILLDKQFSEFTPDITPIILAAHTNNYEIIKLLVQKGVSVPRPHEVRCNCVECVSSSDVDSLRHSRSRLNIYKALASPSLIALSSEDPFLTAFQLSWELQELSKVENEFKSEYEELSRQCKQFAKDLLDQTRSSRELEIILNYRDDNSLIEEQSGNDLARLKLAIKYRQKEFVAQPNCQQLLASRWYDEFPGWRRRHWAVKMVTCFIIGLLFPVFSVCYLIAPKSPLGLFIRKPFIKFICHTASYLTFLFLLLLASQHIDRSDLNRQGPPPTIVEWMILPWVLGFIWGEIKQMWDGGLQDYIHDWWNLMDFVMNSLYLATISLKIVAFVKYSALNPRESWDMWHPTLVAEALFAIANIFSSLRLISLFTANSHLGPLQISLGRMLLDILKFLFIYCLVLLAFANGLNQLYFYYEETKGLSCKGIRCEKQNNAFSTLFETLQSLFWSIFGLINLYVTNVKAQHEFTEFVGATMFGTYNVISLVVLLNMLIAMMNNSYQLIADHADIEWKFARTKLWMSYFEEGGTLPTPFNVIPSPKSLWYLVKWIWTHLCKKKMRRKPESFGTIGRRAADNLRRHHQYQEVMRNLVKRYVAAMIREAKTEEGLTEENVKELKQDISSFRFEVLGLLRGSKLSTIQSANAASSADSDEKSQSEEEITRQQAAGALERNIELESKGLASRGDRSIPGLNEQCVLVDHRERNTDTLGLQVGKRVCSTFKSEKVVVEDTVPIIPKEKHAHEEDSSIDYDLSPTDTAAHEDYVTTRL
Briefly: FLIPR Ca2+ assay, E isomers silencing EA-activated TRPC4 (HEK293-mTRPC4β-YFP). It is filed as cell-based. The source says: (2) The EC50 values are reported as the midpoints of unconstrained sigmoidal fits to the FLIPR data (Fig 1l and Supplementary Fig. 2): with different levels of channel activation / blocking and very different Hill slopes across different compounds, isomers, and the two channels. This argues that the midpoint values only capture one of the several important factors describing the […]
We believe that it is possible to derive indicative relative values for binding affinity comparing the E and Z isomers of the same compound using only the combination of FLIPR and ephys data as reported in this paper; this analysis is being developed in a separate paper (see also below).
Supplementary Table 1. Potencies on TRPC4/5 depicted as either simple agonistic potency (blue) or else inhibitory […]
. Z*-values refer to mostly-Z-isomer reached at PSS at 365 nm, E*-values refer to experiments that initially applied 100% E-isomer (thermally relaxed), though in both cases the Ca2+ imaging in FLIPR with Fluo4-AM uses 470 nm excitation, which may over time promote photoswitching towards a PSS that is intermediate between those of pure-365 nm and all-E; this is controlled for in the more reliable ephys measurements). (Table indices: a, data from ref7; b, data from ref2; c, data from ref3; d, data from ref8.) EC50 [nM] (for simple agonism or EA-competitive inhibition)
E-AzPico 90 (vs 30 nM EA) 67 (vs 30 nM EA) […]
orange: inhibitory effect ag.: agonistic effect
1.1.1 From always-active antagonists and agonists towards efficacy photoswitches […]
photoisomerising an azobenzene that is merged in at the C’4 position yielding the compounds […]
deliver (Fig. 1-2) is a powerful support for an efficacy switch interpretation. To indirectly support this further, we also measured the effects of E-AzPico and E-AzHC against EA-activated TRPC4/5. […]
to be an EA-competitive binder5,9,10), so their efficacy as single agent photoswitches results from E/Z-competitive binding that is determined by their PSS. […]
Supplementary Table 2. […] (a Inhibitory effect measured against 30 nM EA; b Inhibitory effect measured against 50 nM EA). […]

T1 sequence (Q9UL62 whole entry): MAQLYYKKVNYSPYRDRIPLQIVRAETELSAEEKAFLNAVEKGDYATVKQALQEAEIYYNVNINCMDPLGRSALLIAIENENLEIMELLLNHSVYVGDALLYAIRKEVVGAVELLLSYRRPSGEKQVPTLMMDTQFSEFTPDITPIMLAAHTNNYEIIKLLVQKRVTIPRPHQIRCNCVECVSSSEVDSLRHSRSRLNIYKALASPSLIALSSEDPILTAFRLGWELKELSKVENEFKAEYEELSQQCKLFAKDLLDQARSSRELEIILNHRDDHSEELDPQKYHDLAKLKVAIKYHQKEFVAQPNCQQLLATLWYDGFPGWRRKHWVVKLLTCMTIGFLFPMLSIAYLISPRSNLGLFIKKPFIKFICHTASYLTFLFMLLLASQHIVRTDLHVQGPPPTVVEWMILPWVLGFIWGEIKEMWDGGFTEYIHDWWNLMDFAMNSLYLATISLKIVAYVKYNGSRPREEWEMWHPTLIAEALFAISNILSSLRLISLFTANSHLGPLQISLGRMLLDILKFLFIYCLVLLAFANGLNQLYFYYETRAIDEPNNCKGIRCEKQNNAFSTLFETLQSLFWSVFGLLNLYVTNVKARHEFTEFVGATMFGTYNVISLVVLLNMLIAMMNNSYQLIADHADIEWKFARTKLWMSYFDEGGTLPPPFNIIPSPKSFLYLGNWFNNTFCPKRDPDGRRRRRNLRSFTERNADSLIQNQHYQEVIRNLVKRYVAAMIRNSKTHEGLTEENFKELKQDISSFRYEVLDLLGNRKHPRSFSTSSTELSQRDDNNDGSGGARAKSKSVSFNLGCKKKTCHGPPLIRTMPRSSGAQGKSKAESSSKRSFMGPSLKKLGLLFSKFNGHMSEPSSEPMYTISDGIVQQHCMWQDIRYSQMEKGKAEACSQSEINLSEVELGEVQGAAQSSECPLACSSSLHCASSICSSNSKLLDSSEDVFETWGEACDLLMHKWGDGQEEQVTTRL
T1 sequence (P48995 whole entry partner): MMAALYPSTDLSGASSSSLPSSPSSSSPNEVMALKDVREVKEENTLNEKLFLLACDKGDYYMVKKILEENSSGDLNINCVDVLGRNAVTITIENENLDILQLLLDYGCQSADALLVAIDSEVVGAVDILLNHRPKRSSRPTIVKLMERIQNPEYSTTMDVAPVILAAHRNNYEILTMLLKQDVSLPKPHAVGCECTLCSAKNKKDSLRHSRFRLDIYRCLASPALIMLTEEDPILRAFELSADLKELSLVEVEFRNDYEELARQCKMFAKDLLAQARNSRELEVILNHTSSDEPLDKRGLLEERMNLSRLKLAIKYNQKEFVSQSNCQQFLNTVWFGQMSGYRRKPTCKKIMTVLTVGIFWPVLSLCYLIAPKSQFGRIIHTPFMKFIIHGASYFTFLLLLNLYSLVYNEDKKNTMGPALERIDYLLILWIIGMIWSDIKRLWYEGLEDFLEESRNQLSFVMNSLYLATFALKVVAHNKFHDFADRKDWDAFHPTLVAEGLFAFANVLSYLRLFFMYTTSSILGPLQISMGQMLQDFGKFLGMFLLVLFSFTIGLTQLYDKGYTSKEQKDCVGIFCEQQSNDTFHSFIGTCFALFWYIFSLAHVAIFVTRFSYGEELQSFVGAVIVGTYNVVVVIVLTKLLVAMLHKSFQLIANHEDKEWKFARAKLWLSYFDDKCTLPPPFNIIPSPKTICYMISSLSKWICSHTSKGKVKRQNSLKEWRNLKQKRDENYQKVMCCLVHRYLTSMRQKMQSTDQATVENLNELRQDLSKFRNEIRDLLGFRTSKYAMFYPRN

With `Cn1c(=O)n(CCCO)c(=O)c2c1nc(Oc1ccc(Cl)c(OC(F)(F)F)c1)n2Cc1ccc(Cl)cc1` [AM237, reference compound], at heteromeric TRPC5:TRPC1, the “Activation of heteromeric TRPC1:TRPC5” value is recorded as “does not activate”. For the same compound, the EC50 in the assay on TRPC5 was 20 nM.
As to `Cn1c(=O)n(CCCO)c(=O)c2c1nc(Oc1ccc(N=Nc3ccccc3)c(Cl)c1)n2Cc1ccc(Cl)cc1` [AzHC], the “Ca2+ photoresponse in TRPC5-knockout slices” value in assay [1] (500 nM, 355 nm pulse) was “did not respond”. In assay [1] (1 µM), the “Change in spontaneous Ca2+ activity in TRPC5-deficient Th+ neurons vs before UV” value was “no change”.
Take `Cn1c(=O)n(CCCO)c(=O)c2c1nc(Oc1ccc(/N=N/c3ccccc3)c(OC(F)(F)F)c1)n2Cc1ccc(Cl)cc1` [E-AzPico]: the half-inhibitory concentration (IC50) stood at 0.09 µM at EA-activated TRPC4 (Inhibitory IC50 (versus 30 nM EA) TRPC4, E isomer, thermally relaxed, 30 nM EA) and 0.086 µM on EA-activated TRPC4 (Inhibitory IC50 (versus 50 nM EA) TRPC4, E isomer, 50 nM EA).
